These results are taken from patent US20250049032A1, “ETHYLENE SIGNALING ACTIVATOR MODULATES ROOT SYSTEM ARCHITECTURE” (Salk Institute for Biological Studies, priority 2021, published 2025).

Entries after “also recorded” stand apart in the source; their conditions may differ.

For one series, the target named is T1, MAPK4 (Arabidopsis thaliana, UniProt Q39024).
T1 construct: 6xHis (N); made in house; host or cells: E. coli Rosetta 2 (DE3)pLysS
T1 sequence (Q39024 1-376): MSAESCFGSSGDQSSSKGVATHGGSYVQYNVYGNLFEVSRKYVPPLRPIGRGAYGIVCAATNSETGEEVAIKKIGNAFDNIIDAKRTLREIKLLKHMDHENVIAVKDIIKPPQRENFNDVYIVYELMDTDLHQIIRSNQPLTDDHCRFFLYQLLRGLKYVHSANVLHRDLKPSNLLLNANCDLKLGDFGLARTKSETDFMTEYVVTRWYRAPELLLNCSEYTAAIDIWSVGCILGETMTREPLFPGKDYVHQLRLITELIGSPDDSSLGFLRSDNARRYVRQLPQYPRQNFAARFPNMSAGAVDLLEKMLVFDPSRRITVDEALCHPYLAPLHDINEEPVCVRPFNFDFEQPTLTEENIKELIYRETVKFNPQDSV
Put plainly: In vitro kinase assay with non-radioactive ATP-γ-S. In kind it is biochemical. The note with it: 0, 10, 100 μM MBZ. As to the method: Protein purification. The CTR1 Kinase domain (540 aa-821 aa) (CTR1-KD) and MAPK4 were cloned into a modified pET28a with 6× His tag at their N-terminal. Proteins were expressed in Rosetta™ 2 (DE3)pLysS Competent Cells. Bacteria was cultured in 30 mL LB media containing 50 μg/mL kanamycin overnight at 37° C., 200 rpm. The culture was transferred into 1 L LB media with kanamycin. After the culture reached to 0.7 to 0.9 at OD 600 nm, 0.4 mM isopropylthiop-D-galactoside (IPTG) was added, and the culture was grown for 22 h at 20° C., 200 rpm. Cells were harvested by centrifugation at 4° C. for 10 mins at 3,000×g. The pellet was washed with 0.9% NaCl and resuspended in 40 mL lysis buffer (50 mM pH 7.5 Tris-HCl, 1 mM EDTA, 100 mM NaCl, 20% glycerol, EDTA-free protease inhibitor cocktail, 10 mM imidazole). […] Protein concentration was measured by their absorbance at 280 nm.
In vitro kinase assay with non-radioactive ATP-7-S. The in vitro kinase assay followed the previous published method ([…]). […] The phosphorylation status of MBP, CTR1-KD and MPK4 were analyzed by western blot using Recombinant Anti-Thiophosphate ester antibody (Abcam, Cat. Ab92570, 1:5000) followed by Goat Anti-Rabbit IgG (H+L)-HRP Conjugate antibody (Bio-Rad, Cat. No. 170-6515, 1:5000). The MBP, CTR1-KD and MPK4 proteins loading amounts were measured by Coomassie Blue R250 staining.

Series [1] has as its system etiolated Col-0 seedlings. The series is described as follows: Measurement of ethylene production by GC-MS. Type of series: in vivo, Arabidopsis thaliana. As to conditions: 3-days-old etiolated Col-0 seedlings, 10 μM. As to the method:
Measurement of ethylene production. […] These vials were incubated at 22° C. for 3 days under dark environment. 500-1000 μL sample of the headspace gas was sampled with an autosampler (TriPlus RSH, Thermo Scientific) and injected into a gas chromatograph (Trace 1310 GC, Thermo Scientific) that was equipped with a HP-PLOTQ column ([…], 320 μm, 20 μm) and a mass spectrometer (TSQ8000 Evo MS, Thermo Scientific), scanning from 25-27.5 m/z. Separations were carried out at 35° C. using He as the carrier gas. The area of the ethylene peak (RT: 4 min) was integrated using Thermo Xcalibur Qual Browser. A calibration curve was generated by varying the injection volume (100 μL, 250 μL, 500 μL, and 1000 μL) of a 10 ppm ethylene standard (in nitrogen), and sample results are expressed as concentrations calculated from linear regression of calibration samples.

The next series deals with hsMAPK14 (Homo sapiens, UniProt Q16539). As to conditions: mammalian systems, Ariey-Bonnet et al., 2020; cited from earlier work.
Series [2] concerns etiolated Arabidopsis seedlings. Put plainly: Triple response of etiolated seedlings. In kind it is in vivo, Arabidopsis thaliana.
For series [3], the system named is IAA1, IAA29, GH3.2, GH3.3, and MAKR4. Put plainly: Expression of marker genes of auxin signaling. In kind it is in vivo, Arabidopsis thaliana. As to conditions: 10 μM MBZ, 2 h.
Series [4] concerns Arabidopsis thaliana roots.
Setting [5] is: 1 μM MBZ, one week after germination.
[6] abbreviates: 8-day-old seedlings, 1 μM MBZ or 10 nM IAA plates.

hsMAPK14, sequence (Q16539 whole entry): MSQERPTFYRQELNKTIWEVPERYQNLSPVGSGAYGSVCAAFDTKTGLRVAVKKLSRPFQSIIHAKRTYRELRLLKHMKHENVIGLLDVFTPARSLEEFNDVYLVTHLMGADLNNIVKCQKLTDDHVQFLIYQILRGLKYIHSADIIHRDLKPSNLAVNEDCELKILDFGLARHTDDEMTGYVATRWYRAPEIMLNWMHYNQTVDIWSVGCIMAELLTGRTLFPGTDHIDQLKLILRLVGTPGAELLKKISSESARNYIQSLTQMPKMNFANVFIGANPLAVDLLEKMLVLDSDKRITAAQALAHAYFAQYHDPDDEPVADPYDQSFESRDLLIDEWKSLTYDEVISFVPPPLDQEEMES

For `COC(=O)Nc1nc2ccc(C(=O)c3ccccc3)cc2[nH]1` [MBZ, Mebendazole], the “effect on MAPK4 kinase activity compared to CTR1” value at MAPK4 is given as “much less pronounced”. In addition, the “kinase activity of MPK4” value on MAPK4 (concentration dependent) is “inhibited”. For the same compound, the ethylene production entry in series [1] is on record as “not detected”. In addition, at hsMAPK14, the “activity on hsMAPK14” value is recorded as “inhibitor”. Further, the triple response phenotype result in series [2] (3-day-old etiolated seedlings, 10 μM MBZ) was “significant triple response phenotype”. Moreover, the “triple response in etr1-3” value in series [2] (4-days-old etiolated etr1-3 seedlings, 2.5 μM MBZ or 10 μM ACC) was “showed the typical triple response phenotype”. The “triple response in ethylene insensitive mutants ein2-5 and ein3eil1” value in series [2] (MBZ (2.5 μM), etiolated seedlings) is reported as “abolished; also recorded: didn't show a triple response”. Besides, in series [2] (dark environment), the “concentration sufficient to induce the triple response phenotype” value was found to be 2.5 µM. The “expression of marker genes of auxin signaling” value in series [3] is recorded as “did not show any significant change”. In series [4] (setting [5]), the “decreased root length (in average reduced by)” value is 37%; the “root hair initiation and elongation” value is reported as “increased”. Also, in series [4] (1.2 μM MBZ), the “root length of ein2-5 and ein3eil1 mutant plants” value is on record as “clearly not affected”; the “root phenotype of Col-0” value was “short roots and increased root hair development”. The “response of etr1-1 and etr1-3 ethylene receptor mutants (root length, GSA)” value in series [4] (1.2 μM MBZ plates) was “strongly responded”. Further, the “lateral root angles of ctr1-1, ein2-5, and ein3eil1 plants” value in series [4] (2 to 3-weeks-old plants, 1.3 μM MBZ) is given as “insensitive”. Also, in series [4] (setting [6]), the root elongation entry was “inhibited” and the root hair growth result is listed as “enhanced”. Further, the lateral root angle entry in series [4] (MBZ treatment) is given as “distinctly increased”. Besides, in series [4] (in vivo), the “plant growth and development” value was “strongly inhibited plant growth and development”. Further, the “lateral root gravitropic setpoint angle (GSA)” value in series [4] (two-week-old seedlings grown on 1 μM MBZ plates) is “approx. 70 °”.
